Experimental data taken from patent US20210330611A1, “THERAPY FOR NEUROLOGICAL DISEASES/DISORDERS” (priority 2020, published 2021).
Counter-ions that a name gives are not always drawn. Like-named read-outs stand apart in the source and are kept apart here.

Assays:
[1] = test system: fibrin-induced microglia activation; assay: Image-based assay of fibrin-induced microglia activation (HTS and dose response); format: cell-based, rat; conditions: primary microglia HTS, fibrin stimulation; for inhibition at 10 µM: Rattus norvegicus, Microglia, read-out: Fibrin % inhibition
[2] = test system: LPS-induced microglia activation; assay: Image-based assay of LPS-induced microglia activation (HTS and dose response); format: cell-based, rat; conditions: for inhibition at 10 µM: Rattus norvegicus, Microglia, read-out: LPS % inhibition
[3] = test system: fibrin- and LPS-induced microglia activation; assay: cells; format: cell-based, rat
primary rat microglia [4] = test system: primary rat microglia
primary rat microglia [5] = assay: Cell toxicity (dead cells, size <150 μm2) in coated fibrin (cFib) assay; conditions: primary microglia HTS;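 note: share of dead cells sized under 150 µm2 at 10 µM in fibrin-stimulated microglia HTS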
[6] = cell size >800 μm2 as marker of activation
[7] = classification by fibrin and LPS inhibition in HTS
[8] = fibrin stimulation, cell size <150 μm2 as marker of toxicity
[9] = primary microglia HTS, LPS stimulation, compounds at 10 μM
[10] = classification by fibrin and LPS inhibition, HTS at 10 μM
[11] = fibrin assay, dead cells (size <150 μm2), compounds at 10 μM
[12] = quadrant by fibrin and LPS inhibition, HTS at 10 μM
[13] = fibrin assay, dead cells (size <150 μm2)

| Compound | inhibition at 10 µM [1, 6] [%] | Quadrant (FIG. 5b) [3, 7] | LPS % cell toxicity (primary rat microglia [4]; rat) [%] | Fibrin % cell toxicity (primary rat microglia [5]; [8]) [%] | inhibition at 10 µM ([1]; compounds at 10 μM) [%] | inhibition at 10 µM [2, 9] [%] | Quadrant (FIG. 5b) [3, 12] | Fibrin % cell toxicity (primary rat microglia [5]; [13]) [%] | further results |
| --- | --- | --- | --- | --- | --- | --- | --- | --- | --- |
| NC(=O)CN1CCCC1=O [Piracetam] | -21 | Q4 | 0 | 0 | – | – | – | – | inhibition at 10 µM ([2]; 48 h): 9% |
| Cc1ncc([N+](=O)[O-])n1CC(C)O (stereo not drawn) [Secnidazole] | -24 | Q4 | 2 | 1 | – | – | – | – | inhibition at 10 µM ([2]; 48 h): 22% |
| O=C(O)c1ccccc1C(=O)Nc1ccc(S(=O)(=O)Nc2nccs2)cc1 [Phthalylsulfathiazole] | 3 | Q4 | 1 | 1 | – | – | – | – | inhibition at 10 µM ([2]; 48 h): 13% |
| C[C@]12CC[C@@H]3c4ccc(OC(=O)c5ccccc5)cc4CC[C@H]3[C@@H]1CC[C@@H]2O [Estradiol Benzoate] | – | – | 0 | – | -3 | 8 | – | – | Quadrant (FIG. 5b) [3, 10]: Q4; Fibrin % cell toxicity (primary rat microglia [5]; [11]): 1% |
| CCC(C)(C)c1ccc(CC(C)CN2C[C@@H](C)O[C@@H](C)C2)cc1 (stereo partly drawn) [Amorolfine] | – | – | 0 | – | 6 | 22 | Q4 | 1 | – |
| CCCCCCCCCCCCCCCCCCCCCCO [Docosanol] | – | – | 0 | – | -10 | -2 | – | – | Quadrant (FIG. 5b) [3, 10]: Q4; Fibrin % cell toxicity (primary rat microglia [5]; [11]): 0% |
| CC(=O)Nc1ccc(CC(=O)O)cc1 [Actarit] | – | – | 0 | – | 11 | 9 | Q4 | 1 | – |
| CC(C(=O)O)c1ccc2c(c1)Cc1cccnc1O2 (stereo not drawn) [Pranoprofen] | -14 | Q4 | 0 | 1 | – | – | – | – | inhibition at 10 µM ([2]; 48 h, primary microglia HTS, LPS stimulation, cell size >800 μm2 as marker of activation): 8% |
| C[C@@H]1O[C@@H](OC[C@H]2O[C@@H](Oc3c(-c4ccc(O)c(O)c4)oc4cc(O)cc(O)c4c3=O)[C@H](O)[C@@H](O)[C@@H]2O)[C@H](O)[C@H](O)[C@H]1O [Rutin] | 1 | Q4 | 0 | 1 | – | – | – | – | inhibition at 10 µM ([2]; 48 h): 18% |
| CC(C)c1c(CN(C)C(C)Cc2ccccc2)n(C)n(-c2ccccc2)c1=O (stereo not drawn) [Famprofazone] | – | – | 0 | – | -3 | 15 | – | – | Quadrant (FIG. 5b) [3, 10]: Q4; Fibrin % cell toxicity (primary rat microglia [5]; [11]): 1% |
| CN(C)[C@@H]1C(O)=C(C(=O)NCN2CCCC2)C(=O)[C@@]2(O)C(O)=C3C(=O)c4c(O)cccc4[C@@](C)(O)[C@H]3C[C@@H]12 [Rolitetracycline] | 4 | Q4 | 0 | 1 | – | – | – | – | inhibition at 10 µM ([2]; 48 h): 9% |
| O=C(N/N=C/c1ccc([N+](=O)[O-])o1)c1ccc(O)cc1 [Nifuroxazide] | – | – | 14 | – | 112 | 120 | Q2 | 6 | – |
| C[C@H]1COc2c(C3(N)CC3)c(F)cc3c(=O)c(C(=O)O)cn1c23 [Pazufloxacin Mesylate, Pazufloxacin] | – | Q4 | – | 1 | – | – | – | – | Fibrin % inhibition [1, 6]: −10%; LPS % inhibition [2]: 11%; LPS % cell toxicity (primary rat microglia [4]): 0% |
| CC(C)NC(=N)NC(=N)Nc1ccc(Cl)cc1 [Proguanil; Chlorguanide Hydrochloride] | – | Q4 | – | 0 | – | – | – | – | Fibrin % inhibition [1, 6]: −7%; LPS % inhibition [2]: 20%; LPS % cell toxicity (primary rat microglia [4]): 1% |
| C=CCNC(N)=S [Allylthiourea] | – | – | 0 | – | -7 | 11 | Q4 | 1 | – |
| O=P(O)(O)C(O)(Cc1cccnc1)P(=O)(O)O [Risedronate] | 47 | Q4 | 0 | 1 | – | – | – | – | inhibition at 10 µM ([2]; 48 h): 15% |
| c1ccc(CN(CC2=NCCN2)c2ccccc2)cc1 [Antazoline] | – | – | 1 | – | -2 | 17 | Q4 | 1 | – |
| Cc1oc(=O)oc1CN1CCN(c2cc3c(cc2F)c(=O)c(C(=O)O)c2n3C(C)S2)CC1 (stereo not drawn) [Prulifloxacin] | 7 | Q4 | 0 | 1 | – | – | – | – | inhibition at 10 µM ([2]; 48 h): 16% |

| Compound | inhibition at 10 µM [1, 6] [%] | Quadrant (FIG. 5b) [3, 7] | LPS % cell toxicity (primary rat microglia [4]; rat) [%] | Fibrin % cell toxicity (primary rat microglia [5]; [8]) [%] | inhibition at 10 µM ([1]; compounds at 10 μM) [%] | inhibition at 10 µM [2, 9] [%] | Quadrant (FIG. 5b) [3, 12] | Fibrin % cell toxicity (primary rat microglia [5]; [13]) [%] | further results |
| --- | --- | --- | --- | --- | --- | --- | --- | --- | --- |
| CC1(C)O[C@@H]2C[C@H]3[C@@H]4CCC5=CC(=O)C=C[C@]5(C)[C@@]4(F)[C@@H](O)C[C@]3(C)[C@]2(C(=O)CO)O1 [Triamcinolone Acetonide] | – | – | 4 | – | 111 | 104 | Q2 | 4 | – |
| CCN(CC)CCOC(=O)C(c1ccccc1)c1ccccc1 [Adiphenine Hydrochloride] | – | – | 0 | – | -30 | 12 | Q4 | 1 | – |
| CCOC(=O)[C@H](CCc1ccccc1)N[C@H]1CCc2ccccc2N(CC(=O)O)C1=O [Benazepril] | – | – | 1 | – | 0 | 26 | Q4 | 1 | – |
| N=C(N)NN [Aminoguanidine] | – | – | 0 | – | -25 | 12 | Q4 | 0 | – |
| N[C@H](Cc1ccccc1)C(=O)O [D-phenylalanine] | – | – | 0 | – | 1 | 23 | – | – | Quadrant (FIG. 5b) [3, 10]: Q4; Fibrin % cell toxicity (primary rat microglia [5]; [11]): 1% |
| CC(=O)[C@H]1CC[C@H]2[C@@H]3CC[C@@H]4C[C@H](O)CC[C@]4(C)[C@H]3CC[C@]12C [Eltanolone] | – | – | 0 | – | -6 | 4 | – | – | Quadrant (FIG. 5b) [3, 10]: Q4; Fibrin % cell toxicity (primary rat microglia [5]; [11]): 1% |
| O=C(O)/C=C\C(=O)O.O=C(O)/C=C\C(=O)O.c1ccc2nc(N3CCNCC3)ccc2c1 [Quipazine Dimaleate, Quipazine Maleate] | – | Q4 | – | 1 | – | – | – | – | Fibrin % inhibition [1, 6]: −18%; LPS % inhibition [2]: 9%; LPS % cell toxicity (primary rat microglia [4]): 0% |
| NC(=O)NC1NC(=O)NC1=O (stereo not drawn) [Allantoin] | – | – | 0 | – | -21 | 6 | Q4 | 1 | – |
| O=C1Nc2ccc(Cl)cc2[C@@](C#CC2CC2)(C(F)(F)F)O1 [Efavirenz] | – | – | 0 | – | -7 | -5 | – | – | Quadrant (FIG. 5b) [3, 10]: Q4; Fibrin % cell toxicity (primary rat microglia [5]; [11]): 1% |
| CC(O)Cn1cnc2c1c(=O)n(C)c(=O)n2C (stereo not drawn) [Proxyphylline] | -21 | Q4 | 0 | 1 | – | – | – | – | inhibition at 10 µM ([2]; 48 h): 11% |
| Oc1ccc(Cl)cc1Cc1cc(Cl)ccc1O [Dichlorophene, Dichlorophen] | – | – | – | – | – | – | – | – | Fibrin % inhibition ([1]; compounds at 10 μM): −23%; LPS % inhibition [2, 9]: 15%; Quadrant (FIG. 5b) [3, 10]: Q4; LPS % cell toxicity (primary rat microglia [4]): 0%; Fibrin % cell toxicity (primary rat microglia [5]; [11]): 1% |
| Nc1nc2c(ncn2COCCO)c(=O)[nH]1 [Aciclovir] | – | – | 1 | – | -20 | 3 | Q4 | 1 | – |
| CCN(CC)C(=O)c1cccc(C)c1 [Deet, Diethyltoluamide] | – | – | – | – | – | – | – | – | Fibrin % inhibition ([1]; compounds at 10 μM): −38%; LPS % inhibition [2, 9]: 6%; Quadrant (FIG. 5b) [3, 10]: Q4; LPS % cell toxicity (primary rat microglia [4]): 0%; Fibrin % cell toxicity (primary rat microglia [5]; [11]): 0% |
| O=C(CCCl)NCCc1ccccc1 [Fenaclon] | – | – | 0 | – | 8 | 16 | – | – | Quadrant (FIG. 5b) [3, 10]: Q4; Fibrin % cell toxicity (primary rat microglia [5]; [11]): 1% |
| C[C@H]1[C@@H](O)O[C@@H]2O[C@@]3(C)CC[C@H]4[C@H](C)CC[C@@H]1[C@@]24OO3 [Artenimol] | – | – | 0 | – | -56 | 11 | Q4 | 0 | – |
| CNC(=C[N+](=O)[O-])NCCSCc1ccc(CN(C)C)o1 [Ranitidine] | 35 | Q4 | 0 | 1 | – | – | – | – | inhibition at 10 µM ([2]; 48 h): 15% |
| O=C(Oc1ccccc1C(=O)O)c1ccccc1O [Salsalate] | -22 | Q4 | 1 | 1 | – | – | – | – | inhibition at 10 µM ([2]; 48 h): 14% |
| C[C@H](CCC(=O)O)[C@H]1CC[C@H]2[C@@H]3C(=O)C[C@@H]4CC(=O)CC[C@]4(C)[C@H]3CC(=O)[C@]12C [Dehydrocholic Acid] | – | – | 0 | – | -30 | 7 | – | – | Quadrant (FIG. 5b) [3, 10]: Q4; Fibrin % cell toxicity (primary rat microglia [5]; [11]): 1% |
